Reference: paper PMC4814829, “Design, synthesis, crystallization and biological evaluation of new symmetrical biscationic compounds as selective inhibitors of human Choline Kinase α1 (ChoKα1)” (Scientific Reports, 2016)

Assays:
human ChoKα1 = target: T1, human ChoKα1 (Homo sapiens, UniProt P35790); test: Tryptophan fluorescence quenching; assay type: binding; details: mean ± S.D. of at least three independent experiments; 25 °C, enzyme 1 μM; read-out: HsChoKα1 Kd
T1 construct: made in house
Description: All compounds were prepared in 100% DMSO. Their Kds against human ChoKα1 were measured by monitoring the quenching of tryptophan fluorescence. All experiments were performed in a Cary Eclipse spectrofluorometer (Varian) at 25 °C with the enzymes at 1 μM, and concentrations of compounds varying from 0.1 to 5 μM for ChoKα1 in 25 mM Tris, 150 mM NaCl, pH 7.5. Fluorescence emission spectra were recorded in the 300–400 nm range with an excitation wavelength of 280 nm, with slit width of 5 nm. Controls were determined by incubating the enzymes with equivalent amounts of DMSO. As indicated previously, data analysis was performed in Prism (GraphPad software) considering a model with a single binding site (Eq. 1), where F0 is the intrinsic fluorescence of the enzyme in the absence of quencher (Q), F1 is the observed fluorescence at a given quencher concentration, fa is the fractional degree of fluorescence, and Kd is the dissociation constant.

PBL (+Pha) = test: Antiproliferative assay in non-tumoral cells (MTT); assay type: cell-based; details: Homo sapiens, non-tumoral cells stimulated with phytohematoagglutinin, 72 h, mean ± SEM
Description: (§1) Peripheral mononuclear cells (PBMC) from healthy donors were obtained by separation on Lymphoprep (Fresenius KABI Norge AS) gradient. After extensive washing, cells were resuspended (1 × 10^6 cells/mL) in RPMI-1640 with 10% fetal bovine serum and incubated overnight. For cytotoxicity evaluations in proliferating PBL cultures, non-adherent cells were resuspended at 5 × 10^5 cells/mL in growth medium, containing 2.5 μg/mL PHA (Irvine Scientific). Different concentrations of the test compounds were added, and viability was determined 72 h later by the MTT test. For cytotoxicity evaluations in resting PBL cultures, non-adherent cells were resuspended (5 × 10^5 cells/mL) and treated for 72 h with the test compounds, as described above.

PBL (resting) = test: Antiproliferative assay in non-tumoral cells (MTT); assay type: cell-based; details: Homo sapiens, 72 h, mean ± SEM
Description: as §1

HUVEC = test: Antiproliferative assay in non-tumoral cells; assay type: cell-based; details: Homo sapiens, mean ± SEM
Description: Human Umbilical Vein Endothelial cells (HUVEC), were prepared from human umbilical-cord veins, as previously described. The adherent cells were maintained in M200 medium added by LSGS (low serum growth supplement), containing FBS, hydrocortisone, hEGF, bFGF, heparin, gentamycin/amphotericin (Life Technologies, Monza, Italy). Once confluent, the cells were detached by trypsin–EDTA solution and used in experiments from the first to sixth passages.

T1 sequence (P35790 whole entry): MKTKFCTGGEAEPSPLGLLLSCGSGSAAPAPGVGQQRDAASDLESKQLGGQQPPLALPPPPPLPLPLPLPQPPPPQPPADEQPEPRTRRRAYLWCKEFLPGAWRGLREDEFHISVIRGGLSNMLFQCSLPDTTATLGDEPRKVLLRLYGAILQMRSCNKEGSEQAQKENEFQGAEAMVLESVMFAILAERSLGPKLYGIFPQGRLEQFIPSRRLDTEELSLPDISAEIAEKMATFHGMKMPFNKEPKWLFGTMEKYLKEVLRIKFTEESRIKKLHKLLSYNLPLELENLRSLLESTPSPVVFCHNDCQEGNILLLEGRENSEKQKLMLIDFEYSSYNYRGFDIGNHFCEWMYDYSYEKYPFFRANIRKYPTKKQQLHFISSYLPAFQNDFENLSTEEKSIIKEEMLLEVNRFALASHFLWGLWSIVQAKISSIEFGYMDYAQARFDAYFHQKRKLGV

Kd (human ChoKα1): 700 ± 80 nM
SMILES: CN(C)c1cc[n+](Cc2ccc(OCCOc3ccc(C[n+]4ccc(N(C)C)cc4)cc3)cc2)cc1.[Br-].[Br-] [Compound 10a, 1,1′-(((ethane-1,2-diylbis(oxy))bis(4,1-phenylene))bis(methylene))bis(4-(dimethylamino)pyridinium) bromide]
GI50 (PBL (+Pha)): 34 ± 7 nM | GI50 (PBL (resting)): 1500 ± 640 nM | GI50 (HUVEC): 5100 ± 430 nM
